Experimental data: PMC6414696 (mBio, 2019)
Values after ≈ are worked out from the molar mass of the structure shown. Each block holds one molecule with its values, some of them ahead of it.

What was measured:
OXA 24/40 = conditions: cited from earlier work
[1] = test system: A. baumannii clinical isolates; assay: Broth microdilution MIC susceptibility testing against carbapenems; type: cell-based, Acinetobacter baumannii; conditions: Acinetobacter baumannii
OXA-23 = conditions: cited from earlier work
OXA-24/40 = conditions: cited from earlier work

SMILES: CC1=C[C@@H](C(N)=O)N2C[C@@H]1N(OS(=O)(=O)O)C2=O [compound 3]
IC50 (OXA 24/40): 360 nM

MIC ([1]; strain CCF 1MR): > 8 µg/mL | MIC ([1]; strain CCF 2MR): > 8 µg/mL | MIC ([1]; strain CCF 3MR): > 8 µg/mL | MIC ([1]; strain CCF 4MR): > 8 µg/mL | MIC ([1]; strain CCF 5MR): > 8 µg/mL | MIC ([1]; strain CCF 6MR): > 8 µg/mL | MIC ([1]; strain CCF 7MR): > 8 µg/mL | MIC ([1]; strain CCF 8MR): > 8 µg/mL | MIC ([1]; strain UH AB202): > 8 µg/mL | MIC ([1]; strain UH AB461): > 8 µg/mL | MIC ([1]; strain UH AB477): > 8 µg/mL | MIC ([1]; strain UH AB487): > 8 µg/mL | MIC ([1]; strain UH AB489): > 8 µg/mL | MIC ([1]; strain UH AB490): > 8 µg/mL | MIC ([1]; strain UH AB491): > 8 µg/mL | MIC ([1]; strain UH AB636): > 8 µg/mL | MIC ([1]; strain UH AB660): > 8 µg/mL | MIC ([1]; strain UH AB667): > 8 µg/mL | MIC ([1]; strain VA-432): 32 µg/mL (≈ 107 µM) | MIC ([1]; strain VA-433): 16 µg/mL (≈ 53.4 µM) | MIC ([1]; strain VA-434): 64 µg/mL (≈ 214 µM) | MIC ([1]; strain VA-435): 32 µg/mL (≈ 107 µM) | MIC ([1]; strain VA-436): 64 µg/mL (≈ 214 µM) | MIC ([1]; strain VA-437): 32 µg/mL (≈ 107 µM) | MIC ([1]; strain VA-438): 16 µg/mL (≈ 53.4 µM) | MIC ([1]; strain VA-505): 32 µg/mL (≈ 107 µM)
SMILES: C[C@@H](O)[C@H]1C(=O)N2C(C(=O)O)=C(SCCN=CN)C[C@H]12 [Imipenem]

SMILES: N#CC1CC[C@@H]2CN1C(=O)N2OS(=O)(=O)O (some centres unmarked) [WCK 4234]
k2/Ki (OXA-23): 1.7 ± 0.2 × 10^4 M^−1 s^−1 | k2/Ki (OXA-24/40): 9.6 ± 1 × 10^3 M^−1 s^−1
